# From the supplement of paper PMC10307832
# Assays:
# Assay in all cases: relative viability (nuclei count vs DMSO), 5 days (fraction); higher = more cells survive
# Everolimus + AZD7762 = compound: CO[C@H]1C[C@@H]2CC[C@@H](C)[C@@](O)(O2)C(=O)C(=O)N2CCCC[C@H]2C(=O)O[C@H]([C@H](C)C[C@@H]2CC[C@@H](OCCO)[C@H](OC)C2)CC(=O)[C@H](C)/C=C(\C)[C@@H](O)[C@@H](OC)C(=O)[C@H](C)C[C@H](C)/C=C/C=C/C=C/1C [Everolimus] + NC(=O)Nc1cc(-c2cccc(F)c2)sc1C(=O)N[C@H]1CCCNC1 [AZD7762] (partner 0.2 µM)
# Summary of the method: (§1)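 One day after seeding in 1536-well plates, lung cancer cell lines were dosed by pin tool. Dosing was either single-drug or a fixed anchor-drug dose plus five library-drug doses (not always all listed) in √10 steps. After 5 days, nuclei were stained in one fix-and-stain step and counted on 4× images, and relative viability is the nuclei count of treated wells over that of vehicle wells, given as the median of duplicate plates.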
# Everolimus + Vorinostat = compound: CO[C@H]1C[C@@H]2CC[C@@H](C)[C@@](O)(O2)C(=O)C(=O)N2CCCC[C@H]2C(=O)O[C@H]([C@H](C)C[C@@H]2CC[C@@H](OCCO)[C@H](OC)C2)CC(=O)[C@H](C)/C=C(\C)[C@@H](O)[C@@H](OC)C(=O)[C@H](C)C[C@H](C)/C=C/C=C/C=C/1C [Everolimus] + O=C(CCCCCCC(=O)Nc1ccccc1)NO [Vorinostat] (partner 1 µM)
# Summary of the method: as §1
# Everolimus + Crizotinib = compound: CO[C@H]1C[C@@H]2CC[C@@H](C)[C@@](O)(O2)C(=O)C(=O)N2CCCC[C@H]2C(=O)O[C@H]([C@H](C)C[C@@H]2CC[C@@H](OCCO)[C@H](OC)C2)CC(=O)[C@H](C)/C=C(\C)[C@@H](O)[C@@H](OC)C(=O)[C@H](C)C[C@H](C)/C=C/C=C/C=C/1C [Everolimus] + C[C@@H](Oc1cc(-c2cnn(C3CCNCC3)c2)cnc1N)c1c(Cl)ccc(F)c1Cl [Crizotinib] (partner 1 µM)
# Summary of the method: as §1
# Everolimus + Palbociclib = compound: CO[C@H]1C[C@@H]2CC[C@@H](C)[C@@](O)(O2)C(=O)C(=O)N2CCCC[C@H]2C(=O)O[C@H]([C@H](C)C[C@@H]2CC[C@@H](OCCO)[C@H](OC)C2)CC(=O)[C@H](C)/C=C(\C)[C@@H](O)[C@@H](OC)C(=O)[C@H](C)C[C@H](C)/C=C/C=C/C=C/1C [Everolimus] + CC(=O)c1c(C)c2cnc(Nc3ccc(N4CCNCC4)cn3)nc2n(C2CCCC2)c1=O [Palbociclib] (partner 0.5 µM)
# Summary of the method: as §1
Cell Line,relative viability (Everolimus + AZD7762; first compound 0.01 µM),relative viability (Everolimus + AZD7762; first compound 0.03162 µM),relative viability (Everolimus + AZD7762; first compound 0.1 µM),relative viability (Everolimus + AZD7762; first compound 0.3162 µM),relative viability (Everolimus + AZD7762; first compound 1 µM),relative viability (Everolimus + Vorinostat; first compound 0.01 µM),relative viability (Everolimus + Vorinostat; first compound 0.03162 µM),relative viability (Everolimus + Vorinostat; first compound 0.1 µM),relative viability (Everolimus + Vorinostat; first compound 0.3162 µM),relative viability (Everolimus + Vorinostat; first compound 1 µM),relative viability (Everolimus + Crizotinib; first compound 0.01 µM),relative viability (Everolimus + Crizotinib; first compound 0.03162 µM),relative viability (Everolimus + Crizotinib; first compound 0.1 µM),relative viability (Everolimus + Crizotinib; first compound 0.3162 µM),relative viability (Everolimus + Crizotinib; first compound 1 µM),relative viability (Everolimus + Palbociclib; first compound 0.01 µM),relative viability (Everolimus + Palbociclib; first compound 0.03162 µM),relative viability (Everolimus + Palbociclib; first compound 0.1 µM),relative viability (Everolimus + Palbociclib; first compound 0.3162 µM),relative viability (Everolimus + Palbociclib; first compound 1 µM)
H3255,0.74,0.562,0.595,0.632,0.509,0.474,0.82,0.47,0.446,0.549,0.575,0.505,0.498,0.555,0.527,0.314,0.294,0.319,0.322,0.307
HARA,0.15,0.335,0.223,0.309,0.252,0.431,0.494,0.407,0.371,0.485,1,1.12,0.928,0.986,0.952,0.242,0.189,0.218,0.241,0.169
HCC-15,1.37,1.26,1.33,1.24,1.48,0.937,0.862,0.767,0.753,0.77,0.931,0.887,0.791,0.829,0.75,0.73,0.79,0.627,0.697,0.76
HCC-44,1.1,1.18,1.03,1.12,1.25,1.17,1.23,1.03,1.14,1.05,0.912,0.935,0.774,0.86,0.677,1.01,1,0.997,1.07,1.1
HCC-78,0.455,0.427,0.361,0.553,0.384,0.401,0.372,0.416,0.367,0.307,0.315,0.261,0.265,0.259,0.298,0.477,0.489,0.513,0.485,0.379
HCC-366,0.371,0.245,0.334,0.29,0.209,0.221,0.16,0.181,0.214,0.165,0.433,0.441,0.526,0.295,0.372,0.337,0.156,0.216,0.207,0.106
HCC-827,0.188,0.164,0.185,0.193,0.163,0.643,0.578,0.709,0.827,0.794,0.947,0.831,0.852,0.998,0.839,0.459,0.409,0.331,0.479,0.277
HOP-62,0.289,0.346,0.412,0.402,0.37,0.475,0.345,0.388,0.389,0.361,0.934,0.58,0.556,0.583,0.637,0.418,0.304,0.268,0.294,0.268
LC-2-ad,0.802,0.85,0.775,0.79,0.83,0.851,0.865,0.759,0.79,0.728,0.542,0.48,0.384,0.449,0.417,0.543,0.572,0.564,0.561,0.475
LCLC-97TM1,0.273,0.145,0.189,0.221,0.148,0.62,0.616,0.688,0.659,0.379,0.406,0.28,0.485,0.291,0.216,0.225,0.217,0.159,0.164,0.173
LCLC-103H,0.561,0.671,0.629,0.673,0.608,0.747,0.755,0.734,0.712,0.617,1.1,0.943,1.03,0.841,0.818,0.511,0.49,0.465,0.453,0.546
LK-2,0.213,0.197,0.173,0.186,0.208,0.243,0.174,0.188,0.21,0.189,0.24,–,0.22,0.284,0.227,0.536,0.312,0.321,0.314,0.33
LOU-NH91,0.651,0.654,0.621,0.645,0.647,0.809,0.653,0.744,0.727,0.764,0.664,0.695,0.627,0.573,0.58,0.533,0.561,0.55,0.54,0.547
LU99A,0.213,0.279,0.213,0.246,0.33,0.367,0.371,0.325,0.311,0.471,0.415,0.413,0.35,0.451,0.351,0.242,0.237,0.234,0.203,0.243
LXF-289,1.18,1.28,1.17,1.12,1.24,0.909,0.831,0.817,0.987,0.934,0.885,0.978,0.904,0.88,0.888,0.583,0.542,0.504,0.504,0.476
NCI-H23,0.144,0.185,0.218,0.219,0.175,0.373,0.31,0.432,0.369,0.35,0.486,0.33,0.288,0.398,0.359,0.261,0.272,0.317,0.232,0.252
NCI-H322M,0.473,0.39,0.481,0.397,0.43,0.77,0.601,0.712,0.654,0.713,0.914,0.753,0.775,0.795,0.704,0.473,0.454,0.409,0.47,0.424
NCI-H358,0.358,0.361,0.396,0.18,0.325,0.431,0.434,0.388,0.417,0.47,0.528,0.592,0.509,0.542,0.429,0.136,0.15,0.129,0.11,0.128
NCI-H441,0.97,1.17,0.717,0.953,1.01,0.701,0.789,0.55,0.669,0.589,0.881,0.65,0.606,0.766,0.723,0.204,0.188,0.153,0.222,0.207
NCI-H460,0.669,0.658,0.657,0.465,0.431,0.621,0.617,0.486,0.625,0.372,0.783,0.738,0.808,0.845,0.872,0.104,0.165,0.123,0.0825,0.0699
NCI-H647,0.249,0.273,0.237,0.207,0.364,0.309,0.165,0.132,0.189,0.24,0.582,0.771,0.596,0.582,0.709,0.194,0.231,0.159,0.137,0.219
NCI-H650,0.711,0.737,0.755,0.531,0.69,0.324,0.212,0.293,0.212,0.254,0.672,–,0.582,0.588,0.428,0.368,0.262,0.279,0.278,0.248
NCI-H727,0.482,0.483,0.454,0.565,0.523,0.915,0.797,0.79,0.922,0.886,0.47,0.443,0.553,0.49,0.496,0.642,0.529,0.725,0.613,0.643
NCI-H838,0.767,0.777,0.75,0.831,0.763,0.541,0.539,0.554,0.573,0.471,0.581,0.548,0.416,0.525,0.357,0.144,0.146,0.159,0.174,0.123
NCI-H1355,0.552,0.468,0.456,0.471,0.376,0.385,0.331,0.341,0.365,0.295,0.524,0.462,0.46,0.426,0.438,0.229,0.233,0.207,0.213,0.21
NCI-H1437,1.1,1.11,1.1,0.997,0.875,0.747,0.632,0.656,0.586,0.432,0.969,0.903,0.782,0.873,0.648,0.319,0.313,0.253,0.239,0.248
NCI-H1651,0.197,0.218,0.224,0.208,0.231,0.424,0.418,0.36,0.449,0.405,0.846,0.786,0.735,0.708,0.566,0.474,0.405,0.363,0.351,0.341
